Assay [1] deals with scratching or licking induced by pruritic agent. Nature of the assay: Screening for anti-pruritic effect, systemic (subcutaneous) administration, hairless mouse challenged with pruritic agent. Format: in vivo. The conditions noted are these: 5% solution 0.1 ml subcutaneous, twice. The procedure:
Either the mouse or the rat may be used as a screening model for anti-pruritic compounds. Again, the hairless mouse or the fuzzy rat is a preferred strain in each species.
A test composition in a volume of 0.1 ml containing 5% phenyl-alpha-acyloxyacetamide derivative in solution was injected subcutaneously to the hairless mouse. The same procedure was repeated once more 3 hours later. Two hours after the second injection the mouse was challenged with a pruritic composition either applied topically or administered subcutaneously. When the challenging composition containing a pruritic agent was given topically the solution in a volume of 0.05 ml was applied to the left dorsal skin. A control vehicle solution containing no pruritic agent in the same volume of 0.05 ml was topically applied on the right dorsal skin. For the next 30 minutes the mouse was carefully observed for signs and symptoms of scratching or licking at the skin sites where the pruritic composition and the control vehicle solution had been topically applied.
If the mouse scratched or licked only the left side of the skin where the pruritic composition had been topically applied the test composition which was injected subcutaneously at two and five hours earlier was determined to have no anti-pruritic property. […]

Assay [2] relates to calming or quieting behaviour. As to the kind of experiment: Tranquilizing effect, topical administration in hairless mice. The conditions noted are these: 5% solution topical. Format: in vivo. The procedure:
Hairless mice, ten in each group, were used in this study. N-phenethyl phenyl-alpha-acetoxyacetamide, N-ethyl phenyl-alpha-acetoxyacetamide or other phenyl-alpha-acyloxyacetamide derivative of the instant invention was prepared as a 5% solution in acetone: water, 8:2 or ethanol:water, 8:2. A test solution was topically applied to the left dorsal skin of hairless mice. The same topical applications were repeated three times at 30 minute intervals. A vehicle alone solution containing acetone and water or ethanol and water was used as a control. For the next 8 hours and also 24 hours later all mice were carefully observed and examined for any signs or evidence of calming or quieting effects caused by the test compound.
Normally when a mouse is picked up by the tail with thumb and forefinger the mouse struggles trying to free itself; and if the mouse is placed on a horizontal metallic grid uniformly spaced at 8 mm, the mouse nervously pulls itself across the grid, again trying to free itself from the restraining grip of the fingers.
If during the above observation period the mouse behaved the same before and after the topical treatment when picked up by the tail and placed on the metallic grid, the test compound was determined to have no significant tranquilizing effect by topical administration.

In the case of `CCNC(=O)C(OC(C)=O)c1ccccc1` (stereo not drawn) [N-ethyl phenyl-alpha-acetoxyacetamide], the Anti-pruritic Effect result in assay [1] was “substantial anti-pruritic effect”. Also, the tranquilizing effect entry in assay [2] was “no detectable signs of sedation”.

For `CC(=O)OC(C(=O)NCCc1ccccc1)c1ccccc1` (stereo not drawn) [N-phenethyl phenyl-alpha-acetoxyacetamide], the Anti-pruritic Effect result in assay [1] is reported as “substantial anti-pruritic effect”. Besides, the tranquilizing effect entry in assay [2] was “marked degrees of tranquilizing effect”.

The record behind these values is patent US4518789A, “Phenyl alpha-acyloxyacetamide derivatives and their therapeutic use” (priority 1983, dated 1985).
